# Results taken from PMC5598522 (Toxicology Reports, 2014).
# Tests used:
# [1] = Quantitative whole body autoradiography; type: in vivo, rat; details: [3H] Ticagrelor 3 mg/kg
# Protein binding, rat = type: in vitro ADME
# [2] = pregnant female rat (Day 18 of gestation), 5 min
# [3] = pregnant female rat (Day 18 of gestation), 0.5 h
# [4] = pregnant female rat (Day 18 of gestation), 2 h
# [5] = pregnant female rat (Day 18 of gestation), 4 h
compound,measurement,setting,value
CCCSc1nc(N[C@@H]2C[C@H]2c2ccc(F)c(F)c2)c2nnn([C@@H]3C[C@H](OCCO)[C@@H](O)[C@H]3O)c2n1 [Ticagrelor],"Eye radioactivity, fold of blood value","[1]; male rat, 2 h",0.02 fold of blood value
same,Heart radioactivity,"[1]; male rat, 2 h",1.73 μg equivalent/g
same,"Heart radioactivity, fold of blood value","[1]; male rat, 2 h",3.74 fold of blood value
same,Kidney radioactivity,"[1]; male rat, 2 h",2.22 μg equivalent/g
same,"Kidney radioactivity, fold of blood value","[1]; male rat, 2 h",4.79 fold of blood value
same,Liver radioactivity,"[1]; male rat, 2 h",3.20 μg equivalent/g
same,"Liver radioactivity, fold of blood value","[1]; male rat, 2 h",6.97 fold of blood value
same,Lung radioactivity,"[1]; male rat, 2 h",2.09 μg equivalent/g
same,"Lung radioactivity, fold of blood value","[1]; male rat, 2 h",4.51 fold of blood value
same,Pancreas radioactivity,"[1]; male rat, 2 h",2.78 μg equivalent/g
same,"Pancreas radioactivity, fold of blood value","[1]; male rat, 2 h",6.00 fold of blood value
same,Pituitary gland radioactivity,"[1]; male rat, 2 h",1.84 μg equivalent/g
same,"Pituitary gland radioactivity, fold of blood value","[1]; male rat, 2 h",3.97 fold of blood value
same,Salivary gland radioactivity,"[1]; male rat, 2 h",2.14 μg equivalent/g
same,"Salivary gland radioactivity, fold of blood value","[1]; male rat, 2 h",4.62 fold of blood value
same,Skeletal muscle radioactivity,"[1]; male rat, 2 h",1.48 μg equivalent/g
same,"Skeletal muscle radioactivity, fold of blood value","[1]; male rat, 2 h",3.20 fold of blood value
same,Spinal cord radioactivity,"[1]; male rat, 2 h",0.02 μg equivalent/g
same,"Spinal cord radioactivity, fold of blood value","[1]; male rat, 2 h",0.04 fold of blood value
same,Spleen radioactivity,"[1]; male rat, 2 h",1.51 μg equivalent/g
same,"Spleen radioactivity, fold of blood value","[1]; male rat, 2 h",3.29 fold of blood value
same,Stomach wall radioactivity,"[1]; male rat, 2 h",2.31 μg equivalent/g
same,"Stomach wall radioactivity, fold of blood value","[1]; male rat, 2 h",4.99 fold of blood value
same,Thymus radioactivity,"[1]; male rat, 2 h",1.37 μg equivalent/g
same,"Thymus radioactivity, fold of blood value","[1]; male rat, 2 h",2.96 fold of blood value
same,Thyroid gland radioactivity,"[1]; male rat, 2 h",2.60 μg equivalent/g
same,"Thyroid gland radioactivity, fold of blood value","[1]; male rat, 2 h",5.62 fold of blood value
same,Adrenal gland radioactivity,"[1]; male rat, 4 h",0.81 μg equivalent/g
same,"Adrenal gland radioactivity, fold of blood value","[1]; male rat, 4 h",2.24 fold of blood value
same,Blood (LSC) radioactivity,"[1]; male rat, 4 h",0.361 μg equivalent/g
same,Brain radioactivity,"[1]; male rat, 4 h",0.02 μg equivalent/g
same,"Brain radioactivity, fold of blood value","[1]; male rat, 4 h",0.06 fold of blood value
same,Brown fat radioactivity,"[1]; male rat, 4 h",0.52 μg equivalent/g
same,"Brown fat radioactivity, fold of blood value","[1]; male rat, 4 h",1.44 fold of blood value
same,Eye radioactivity,"[1]; male rat, 4 h",0.14 μg equivalent/g
same,"Eye radioactivity, fold of blood value","[1]; male rat, 4 h",0.39 fold of blood value
same,Kidney radioactivity,"[1]; male rat, 4 h",1.74 μg equivalent/g
same,"Kidney radioactivity, fold of blood value","[1]; male rat, 4 h",4.87 fold of blood value
same,Liver radioactivity,"[1]; male rat, 4 h",2.42 μg equivalent/g
same,"Liver radioactivity, fold of blood value","[1]; male rat, 4 h",6.70 fold of blood value
same,Lung radioactivity,"[1]; male rat, 4 h",1.55 μg equivalent/g
same,"Lung radioactivity, fold of blood value","[1]; male rat, 4 h",4.29 fold of blood value
same,Pancreas radioactivity,"[1]; male rat, 4 h",2.08 μg equivalent/g
same,"Pancreas radioactivity, fold of blood value","[1]; male rat, 4 h",5.76 fold of blood value
same,Pituitary gland radioactivity,"[1]; male rat, 4 h",1.65 μg equivalent/g
same,"Pituitary gland radioactivity, fold of blood value","[1]; male rat, 4 h",4.57 fold of blood value
same,Salivary gland radioactivity,"[1]; male rat, 4 h",1.59 μg equivalent/g
same,"Salivary gland radioactivity, fold of blood value","[1]; male rat, 4 h",4.40 fold of blood value
same,Skeletal muscle radioactivity,"[1]; male rat, 4 h",1.16 μg equivalent/g
same,"Skeletal muscle radioactivity, fold of blood value","[1]; male rat, 4 h",3.21 fold of blood value
same,Spinal cord radioactivity,"[1]; male rat, 4 h",0.02 μg equivalent/g
same,"Spinal cord radioactivity, fold of blood value","[1]; male rat, 4 h",0.06 fold of blood value
same,Spleen radioactivity,"[1]; male rat, 4 h",0.82 μg equivalent/g
same,"Spleen radioactivity, fold of blood value","[1]; male rat, 4 h",2.27 fold of blood value
same,Stomach wall radioactivity,"[1]; male rat, 4 h",1.32 μg equivalent/g
same,"Stomach wall radioactivity, fold of blood value","[1]; male rat, 4 h",3.66 fold of blood value
same,Thymus radioactivity,"[1]; male rat, 4 h",1.33 μg equivalent/g
same,"Thymus radioactivity, fold of blood value","[1]; male rat, 4 h",3.68 fold of blood value
same,Thyroid gland radioactivity,"[1]; male rat, 4 h",1.19 μg equivalent/g
same,"Thyroid gland radioactivity, fold of blood value","[1]; male rat, 4 h",3.30 fold of blood value
same,Blood (LSC) radioactivity,[1]; [2],2.474 μg equivalent/g
same,Fetus radioactivity,[1]; [2],0.03 μg equivalent/g
same,"Fetus radioactivity, fold of blood value",[1]; [2],0.01 fold of blood value
same,Placenta radioactivity,[1]; [2],6.42 μg equivalent/g
same,"Placenta radioactivity, fold of blood value",[1]; [2],2.59 fold of blood value
same,Blood (LSC) radioactivity,[1]; [3],0.864 μg equivalent/g
same,Fetus radioactivity,[1]; [3],0.06 μg equivalent/g
same,"Fetus radioactivity, fold of blood value",[1]; [3],0.07 fold of blood value
same,Placenta radioactivity,[1]; [3],2.86 μg equivalent/g
same,"Placenta radioactivity, fold of blood value",[1]; [3],3.31 fold of blood value
same,Blood (LSC) radioactivity,[1]; [4],0.282 μg equivalent/g
same,Fetus radioactivity,[1]; [4],0.07 μg equivalent/g
same,"Fetus radioactivity, fold of blood value",[1]; [4],0.25 fold of blood value
same,Placenta radioactivity,[1]; [4],1.02 μg equivalent/g
same,"Placenta radioactivity, fold of blood value",[1]; [4],3.62 fold of blood value
same,Blood (LSC) radioactivity,[1]; [5],0.24 μg equivalent/g
same,Fetus radioactivity,[1]; [5],0.03 μg equivalent/g
same,"Fetus radioactivity, fold of blood value",[1]; [5],0.13 fold of blood value
same,Placenta radioactivity,[1]; [5],0.39 μg equivalent/g
same,"Placenta radioactivity, fold of blood value",[1]; [5],1.63 fold of blood value
same,Brain and spinal tissue penetration (QWBA conclusion),[1]; rats,effectively excluded from the brain and spinal tissues by the blood brain barrier
same,"Radioactivity levels in brain, spinal cord and fetus",[1]; rats,< 0.25 fold of blood levels
same,fraction unbound,"Protein binding, rat",0.01
